Data: DBAASP
Values after ≈ are worked out from the molar mass of the structure shown. Each block holds one molecule with its values, some of them ahead of it.

What was measured:
Experiment in all cases: ≥ marks a high value that may be exact or a test limit, other limits are often not marked, values filed in µg/mL are converted to µM
[1] = test system: Candida albicans CPCC 400416
[2] = test system: Escherichia coli CPCC 100521
[3] = test system: Staphylococcus aureus CPCC 100520
[4] = test system: Serratia marcescens ATCC 8100
[5] = test system: Klebsiella pneumoniae ATCC 27736
[6] = test system: Staphylococcus aureus ATCC 29213
[7] = test system: Acinetobacter baumannii ATCC 19606
[8] = test system: Escherichia coli O18:K1:H7
[9] = test system: Stenotrophomonas maltophilia
[10] = test system: Listeria monocytogenes 10403s
[11] = test system: Streptococcus pneumoniae ATCC 49619
[12] = test system: Pseudomonas aeruginosa PA14
Streptococcus pyogenes = test system: Streptococcus pyogenes
Salmonella typhimurium = test system: Salmonella typhimurium
Enterococcus faecium = test system: Enterococcus faecium
[13] = test system: Pseudomonas aeruginosa 547
Pseudomonas aeruginosa = test system: Pseudomonas aeruginosa
Klebsiella pneumoniae = test system: Klebsiella pneumoniae
[14] = test system: Burkholderia cepacia ATCC 25416
[15] = test system: Escherichia coli ATCC 25922
Acinetobacter baumannii = test system: Acinetobacter baumannii
[16] = test system: Pseudomonas aeruginosa ATCC 27853
Staphylococcus aureus = test system: Staphylococcus aureus
[17] = test system: Staphylococcus aureus CGMCC 1.363
[18] = test system: Aeromonas hydrophila CGMCC 1.0927
[19] = test system: Vibrio parahaemolyticus CGMCC 1.1615
[20] = test system: Corynebacterium glutamicum CGMCC 1.1886
[21] = test system: Staphylococcus epidermidis CGMCC 1.2429
[22] = test system: Micrococcus luteus CGMCC 1.0634
[23] = test system: Candida albicans CGMCC 2.2411
Escherichia coli MC1061 = test system: Escherichia coli MC1061
Edwardsiella tarda = test system: Edwardsiella tarda
[24] = test system: Bacillus subtilis CGMCC 1.108
Aeromonas sobria = test system: Aeromonas sobria
[25] = test system: Shigella flexneri CGMCC 1.1868
[26] = test system: Pseudomonas fluorescens CGMCC 1.0032
[27] = test system: Vibrio harveyi CGMCC 1.1593
[28] = test system: Vibrio alginolyticus CGMCC 1.1833
[29] = test system: Vibrio fluvialis CGMCC 1.1609
[30] = test system: Micrococcus luteus CGMCC 1.634
[31] = test system: Saccharomyces cerevisiae CICC 1002
[32] = test system: Candida albicans CICC 1965
[33] = test system: Staphylococcus aureus CICC 10384
[34] = test system: Enterobacter cloacae CICC 21539
[35] = test system: Listeria innocua CICC 10417
[36] = test system: Escherichia coli CICC 10293
[37] = test system: Bacillus subtilis CICC 10034
[38] = test system: Pseudomonas aeruginosa CICC 21636
[39] = test system: Serratia marcescens ATCC 4112
[40] = test system: Staphylococcus aureus CICC 10306
[41] = test system: Salmonella enterica subsp. enterica serovar Paratyphi B CICC 10437
Streptococcus sanguinis = test system: Streptococcus sanguinis

MIC [31]: ≥ 46.4 µM | MIC [32]: ≥ 46.4 µM | MIC [33]: 11.6 µM (≈ 8 µg/mL) | MIC [34]: 23.2 µM (≈ 16 µg/mL) | MIC [35]: 5.8 µM (≈ 4 µg/mL) | MIC [36]: 11.6 µM (≈ 8 µg/mL) | MIC [37]: ≥ 46.4 µM | MIC [38]: 23.2 µM (≈ 16 µg/mL) | MIC [39]: ≥ 46.4 µM | MIC [40]: 11.6 µM (≈ 8 µg/mL) | MIC [41]: ≥ 46.4 µM
SMILES: CC[C@H](C)[C@H](NC(=O)[C@H](CCSC)NC(=O)[C@H](CO)NC(=O)[C@@H](NC(=O)[C@@H](NC(=O)[C@@H](N)CCCCN)C(C)C)[C@@H](C)CC)C(=O)O [KVISMI]

MIC (Streptococcus sanguinis): 4.65 µM (≈ 3.87 µg/mL) | MIC (Staphylococcus aureus): 15.4 µM (≈ 12.8 µg/mL)
SMILES: CC[C@H](C)[C@H](NC(=O)[C@H](Cc1ccccc1)NC(=O)[C@@H](N)CC(C)C)C(=O)N[C@@H](Cc1ccccc1)C(=O)N[C@@H](Cc1ccccc1)C(=O)N[C@@H](Cc1ccccc1)C(N)=O [LFIFFF]

Second part, the molecule before the results:

SMILES: CC[C@H](C)[C@H](NC(=O)CN)C(=O)NCC(=O)N[C@@H](CO)C(=O)N[C@@H](C)C(=O)N[C@H](C(=O)N[C@@H](CC(C)C)C(=O)N[C@@H](CO)C(=O)N[C@@H](C)C(=O)NCC(=O)N[C@@H](CCCCN)C(=O)N[C@@H](CO)C(=O)N[C@H](C(=O)N[C@H](C(=O)N[C@@H](CCCCN)C(=O)NCC(=O)N[C@@H](CC(C)C)C(=O)N[C@@H](C)C(=O)N[C@@H](CCCCN)C(=O)NCC(=O)N[C@@H](CC(C)C)C(=O)N[C@@H](C)C(=O)N[C@@H](CCC(=O)O)C(=O)N[C@@H](Cc1cnc[nH]1)C(=O)N[C@@H](Cc1ccccc1)C(N)=O)[C@@H](C)CC)[C@@H](C)CC)[C@@H](C)CC [GIGSAILSAGKSIIKGLAKGLAEHF]
MIC [1]: ≥ 52.5 µM | MIC [2]: 26.2 µM (≈ 64 µg/mL) | MIC [3]: 26.2 µM (≈ 64 µg/mL)

SMILES: CSCC[C@@H](NC(=O)[C@@H](Cc1c[nH]c2ccccc12)NC(=O)CNC(=O)CNC(=O)[C@@H](CCCN=C(N)N)NC(=O)[C@@H](CCCN=C(N)N)NC(=O)[C@@H](CCCN=C(N)N)NC(=O)[C@@H](CCC(N)=O)NC(=O)[C@@H](CCCN=C(N)N)NC(=O)[C@@H](CCCN=C(N)N)NC(=O)[C@@H](CCCCN)NC(=O)[C@@H](CCCCN)NC(=O)[C@@H](CCCN=C(N)N)NC(=O)CN)C(=O)N[C@H](Cc1c[nH]c2ccccc12)C(=O)N[C@@H](C(=O)N[C@@H](C(=O)N[C@H](CC(N)=O)C(=O)N[C@H](CC(C)C)C(=O)N[C@H](CCCN=C(N)N)C(=O)N[C@@H](C(=O)N[C@H](CC(=O)O)C(=O)O)[C@H](C)O)[C@H](C)O)C(C)C [GRKKRRQRRRGGWMWVTNLRTD]
MIC [4]: ≥ 91 µM | MIC [5]: ≥ 91 µM | MIC [6]: 45.5 µM (≈ 128 µg/mL) | MIC [7]: 2.84 µM (≈ 8 µg/mL) | MIC [8]: 22.7 µM (≈ 64 µg/mL) | MIC [9]: 5.69 µM (≈ 16 µg/mL) | MIC [10]: ≥ 45.5 µM | MIC [11]: 22.7 µM (≈ 64 µg/mL) | MIC [12]: 11.4 µM (≈ 32 µg/mL) | MIC (Streptococcus pyogenes): 2.84 µM (≈ 8 µg/mL) | MIC (Salmonella typhimurium): 22.7 µM (≈ 64 µg/mL) | MIC (Enterococcus faecium): 22.7 µM (≈ 64 µg/mL) | MIC [13]: ≥ 45.5 µM | MIC (Pseudomonas aeruginosa): > 45.5 µM | MIC (Klebsiella pneumoniae): > 91 µM | MIC [14]: ≥ 91 µM | MIC [15]: 11.4 µM (≈ 32 µg/mL) | MIC (Acinetobacter baumannii): 5.69 µM (≈ 16 µg/mL) | MIC [16]: 22.7 µM (≈ 64 µg/mL) | MIC (Staphylococcus aureus): 45.5 µM (≈ 128 µg/mL)

SMILES: CC[C@H](C)[C@H](NC(=O)[C@H](CCCN=C(N)N)NC(=O)CNC(=O)[C@@H](NC(=O)[C@@H]1CCCN1C(=O)[C@H](Cc1ccccc1)NC(=O)[C@H](CCC(N)=O)NC(=O)[C@H](CC(C)C)NC(=O)CNC(=O)[C@H](C)NC(=O)[C@H](CCCN=C(N)N)NC(=O)[C@H](C)NC(=O)[C@H](CO)NC(=O)[C@H](CCCN=C(N)N)NC(=O)[C@H](CO)NC(=O)[C@@H](NC(=O)[C@H](C)NC(=O)[C@H](CCCCN)NC(=O)[C@H](C)NC(=O)[C@H](CCCCN)NC(=O)[C@H](C)NC(=O)[C@@H](N)CCCCN)C(C)C)C(C)C)C(=O)N[C@@H](Cc1cnc[nH]1)C(=O)N[C@@H](CCCN=C(N)N)C(=O)N[C@@H](Cc1cnc[nH]1)C(=O)N[C@@H](CC(C)C)C(=O)N[C@@H](CCCCN)C(=O)O [KAKAKAVSRSARAGLQFPVGRIHRHLK]
MIC [17]: 2.12 µM (≈ 6.33 µg/mL) | MIC [18]: 1.06 µM (≈ 3.16 µg/mL) | MIC [19]: ≥ 48 µM | MIC [20]: 1.06 µM (≈ 3.16 µg/mL) | MIC [21]: 2.12 µM (≈ 6.33 µg/mL) | MIC [22]: 1.06 µM (≈ 3.16 µg/mL) | MIC [23]: ≥ 33.9 µM | MIC (Escherichia coli MC1061): 2.12 µM (≈ 6.33 µg/mL) | MIC (Edwardsiella tarda): ≥ 48 µM | MIC [24]: 2.12 µM (≈ 6.33 µg/mL) | MIC (Aeromonas sobria): 4.24 µM (≈ 12.7 µg/mL) | MIC [25]: 1.06 µM (≈ 3.16 µg/mL) | MIC [26]: 1.06 µM (≈ 3.16 µg/mL) | MIC [27]: ≥ 48 µM | MIC [28]: ≥ 48 µM | MIC [29]: ≥ 48 µM | MIC [30]: 1.06 µM (≈ 3.16 µg/mL)
